Source: US20110071094A1, “(D)-ALLOSE INDUCING PROGRAMMED CELL DEATH IN HORMONE REFRACTORY PROSTATE CANCER LINES” (INDUSTRY-ACADEMIC COOPERATION FOUDATION, GYEONGSANG …, priority 2008, published 2011)

How the values were obtained:
Type in all cases: cell-based, human
DU145 cell line [1] = experiment: Cell cycle analysis, PI staining, flow cytometry; settings: for cells in G0-G1 phase: 48 h, untreated control 31.9%
Experimental: DU145 cell line (1×10^6 cells in triplicate culture plates) was treated with D-allose (0, 20 and 40 mM) for 48 and 72 h. The cells were treated with trypsin and harvested with PBS, centrifuged and resuspended the pellet in cold PBS-methanol mixture (1:9) for 1 h at 4° C. The cells were centrifuged, pellet washed and resuspended with PBS again, and incubated with RNAse (20 mg/ml in PBS) for 30 min at 37° C. The cells were chilled over ice and stained with PI (1 mg/ml in PBS) for 1 h and analyzed by flow cytometry using CellQuest software, version 3.0, performed on a FACSCalibur, fluorescence (FL2-A) detector equipped with 488 nm argon laser light source and 623 nm band pass filter (Becton Dickinson, San Jose, Calif., USA). Total 10,000 cells were acquired for analysis by CellQuest software and the quantification of FACS data was performed using ModFit LT software, version 2.0, (Becton Dickinson, San Jose, Calif., USA). The cell population was gated according to the characteristics side scatter and forward scatter intensities of FACS. The number of all gated living cells was taken as 100%, from which the percentage of cells in G0-G1, S and G2-M phase was calculated and presented in the right side of the histogram.

Bax = experiment: Western blot analysis of Bax protein in DU145; settings: DU145, 40 mM, 72 h
Experimental: After 0, 20 and 40 mM of D-allose treatments for 72 h, DU145 cell line (1×10^6 cells in triplicate culture plates) was harvested into cell lysis buffer (Cell Signaling, Danvers, Mass., USA) supplemented with 1 mM PMSF. The cells were then sonicated, centrifuged and protein concentration was measured by Bradford assay with the Bio-Rad protein assay solution using bovine serum albumin (BSA) as standard. Proteins (30 μg) were separated on a 12.5% SDS-PAGE under reducing conditions and transferred onto a PVDF membrane (Santa Cruz Biotechnology, Santa Cruz, Calif., USA). Prestained protein marker, broad range: 6-175 kDa (New England Biolabs Inc., Ipswich, Mass., USA) run in parallel for detection of the molecular weights of the proteins. Membrane was blocked with 5% (w/v) skimmed milk in order to reduce non-specific binding and immunoblotting was performed using rabbit derived anti-Bcl-2, anti-Bax, anti-Caspase 3 and anti-PARP antibodies (1:500; Santa Cruz Biotechnology, Santa Cruz, Calif., USA). […] Membrane was probed with a goat derived horseradish peroxidase-conjugated anti-rabbit IgG (1:1000; Santa Cruz Biotechnology, Santa Cruz, Calif., USA), and proteins were detected by the enhanced chemiluminescence (ECL) detection system according to the vendor's protocol (Amersham Biosciences, Piscataway, N.J., USA) followed by X-ray exposure. […]

DU145 cell line [2] = experiment: Quantification of apoptosis by annexin-V/PI flow cytometry
Experimental: The Annexin-V-FLUOS Staining Kit (Roche Diagnostics GmbH, Mannheim, Germany) was used for the detection and quantification of the apoptotic cells. This kit uses a dual-staining protocol in which the apoptotic cells are stained with annexin-V (green fluorescence) and the necrotic cells are stained with propidium iodide (PI, red fluorescence). Briefly, DU145 cell line was grown at a density of 1×10^6 cells in triplicate culture plates and then treated with D-allose (0, 20 and 40 mM) for 48 and 72 h. The cells were treated with trypsin and harvested with PBS and processed for labeling with annexin-V and PI by the use of the kit according to the manufacturer's protocol. The fluorescence was measured by flow cytometric analysis, performed on a FACSCalibur (Becton Dickinson, San Jose, Calif., USA) using 488 nm excitation and a 515 nm band pass filter for fluorescein detection and a filter [600 nm for PI detection (FL1: Annexin-V-FLUOS; FL2: PI). Further, apoptotic indices were measured by analysis of fragmented or scattered nuclei and condensed chromosome as the stringent morphological criteria of apoptosis, detectable by confocal microscopy on cells stained with DNA-intercalating dye […] (DAPI). For this purpose, DU145 and PrEC cell lines were exposed to 0, 20 and 40 mM of D-allose for up to 72 h, stained with DAPI (1 μg/ml in methanol), mounted with Prolong Antifade reagent (Molecular Probes, Eugene, Oreg., USA), and images were acquired by use of a confocal laser scanning microscope (Fluoview FV 1000, Olympus, Japan). The numbers of apoptotic nuclei per 100 cells were counted from the five high power fields/slide and apoptotic indices were expressed as a percentage of the untreated controls in each cell line, considering the value as 100%. DU145 cell line was also treated with 0-40 mM of D-glucose for determination of apoptotic indices as mentioned above.

O=C[C@H](O)[C@H](O)[C@H](O)[C@H](O)CO [D-allose]
cells in G0-G1 phase (DU145 cell line [1]; DU145, 20 mM): 48.7%
cells in G0-G1 phase (DU145 cell line [1]; DU145, 40 mM): 57.5%
cell number in G2-M phase and S phase (DU145 cell line [1]; DU145, 48 h): concomitant decrease
Bax protein expression (Bax): remarkably increased
apoptotic cells (annexin-V/PI) (DU145 cell line [2]; DU145, 20 mM, 48 h, untreated control 1.2%): 5.1%
apoptotic cells (annexin-V/PI) (DU145 cell line [2]; DU145, 20 mM, untreated control 2.3%): 11.9%
apoptotic cells (annexin-V/PI) (DU145 cell line [2]; DU145, 40 mM, 48 h, untreated control 1.2%): 8.7%
apoptotic cells (annexin-V/PI) (DU145 cell line [2]; DU145, 40 mM, untreated control 2.3%): 23.5%
